Patent US9187486B2 (AMGEN INC., priority 2011, dated 2015)
Read-outs that look alike come from different tables or passages of the source.

What was measured:
Pim-1 = Pim-1 (Homo sapiens (Human), UniProt P11309); assay: Pim enzyme assay (HTRF, phosphorylation of biotinylated-BAD (S112) peptide), Pim-1; type: biochemical
Outline: (§1)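 Full-length human Pim-1 or Pim-2 with an N-terminal His6 tag, expressed in Sf9 or E. coli and purified as monomer. HTRF read-out: biotinylated BAD (S112) peptide phosphorylation detected with streptavidin-APC plus Eu-anti-phospho-BAD(S112) antibody, excitation 337 nm, emission 665 nm.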

Pim-2 = Pim-2 (Homo sapiens (Human), UniProt Q9P1W9); assay: Pim enzyme assay (HTRF, phosphorylation of biotinylated-BAD (S112) peptide), Pim-2; type: biochemical
Outline: as §1

[1] = test system: KMS-12-BM myeloma cell line; assay: Pim cell assay: phospho-BAD (S112) and total BAD in KMS-12-BM cells; type: cell-based; details: 1 hour and 50 minutes incubation
Description: The KMS-12-BM myeloma cell line was used to determine the in vitro cellular inhibition of Pim kinases. Disruption of Pim signaling by Pim inhibitors was determined by measuring the levels of phospho-BAD (S112) and total BAD. […] The cells were then incubated overnight at 37° C., 5% CO2. […] In addition to the 10-point dosing curve of the test compound, DMSO alone was run as a control. This dilution in DMSO was then diluted again into cell growth medium. Aliquots (11.1 uL) of the compound diluted in growth medium were then transferred to the appropriate wells of the 96-well plates containing cells to yield a final DMSO concentration of 0.3%. The cell plates were then incubated with compound for 1 hour and 50 minutes at 37° C., 5% CO2. After the 1 hour and 50 min incubation, the cell plates were spun at 1000 RPM for 10 minutes and the compound-containing medium was removed. […] The cell plates containing lysis buffer were then immediately stored at −70° C. These prepared lysates were then assayed for phospho-(S112) and total-BAD according to the manufacturer's protocol (Meso Scale Diagnostics, Cat # K15103D-3). The plates were read on the MSD Sector Imager 6000, and results were calculated according to the assay protocol: ((% Phosphoprotein=((2×Phospho signal)/(Phospho signal+Total signal))×100)).

[2] = full length recombinant Pim-1, biotinylated-BAD (S112) peptide, HTRF, 96-well, read-out: Pim-1 IC50 IP
[3] = full length recombinant Pim-2, biotinylated-BAD (S112) peptide, HTRF, 96-well, read-out: Pim-2 IC50 IP
[4] = Homo sapiens, KMS-12-BM, read-out: KMS-12-BM IC50 IP
[5] = full length recombinant Pim-1, biotinylated-BAD (S112) peptide, HTRF, read-out: Pim_1_IC50
[6] = full length recombinant Pim-2, biotinylated-BAD (S112) peptide, HTRF, read-out: Pim2_IC50
[7] = Homo sapiens, KMS-12-BM, read-out: KMS12_Cell_IC50

Chain of Pim-2 (Q9P1W9 whole entry): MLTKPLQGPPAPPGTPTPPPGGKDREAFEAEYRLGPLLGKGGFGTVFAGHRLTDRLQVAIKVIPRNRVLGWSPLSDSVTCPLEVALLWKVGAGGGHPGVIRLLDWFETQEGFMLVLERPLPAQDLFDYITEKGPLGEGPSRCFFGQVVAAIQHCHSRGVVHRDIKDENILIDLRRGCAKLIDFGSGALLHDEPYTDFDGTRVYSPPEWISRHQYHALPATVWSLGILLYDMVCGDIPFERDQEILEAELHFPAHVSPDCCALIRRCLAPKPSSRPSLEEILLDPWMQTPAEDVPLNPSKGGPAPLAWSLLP
Chain of Pim-1 (P11309 whole entry): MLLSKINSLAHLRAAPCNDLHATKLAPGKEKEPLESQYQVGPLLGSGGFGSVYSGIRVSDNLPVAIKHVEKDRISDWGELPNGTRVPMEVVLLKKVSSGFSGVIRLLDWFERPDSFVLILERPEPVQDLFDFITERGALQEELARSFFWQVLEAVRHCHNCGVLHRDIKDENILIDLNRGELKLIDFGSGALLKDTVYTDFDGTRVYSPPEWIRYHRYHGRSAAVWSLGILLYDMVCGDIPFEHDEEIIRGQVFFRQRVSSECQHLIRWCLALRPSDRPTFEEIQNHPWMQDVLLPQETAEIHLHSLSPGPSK

Row | IC50 (Pim-1; [2]) [µM] | IC50 (Pim-2; [3]) [µM] | IC50 [1, 4] [µM] | IC50 (Pim-1; [5]) [µM] | IC50 (Pim-2; [6]) [µM] | IC50 [1, 7] [µM] | SMILES | also measured
1 | 0.0016 | 0.0106 | 2.2 | – | – | – | C[C@@H]1C[C@H](N)CN(c2ccncc2Nc2nnc3ccc(-c4ncccc4F)nn23)C1 [Example 92, N-(4-((3S,5R)-3-amino-5-methyl-1-piperidinyl)-3-pyridinyl)-6-(3-fluoro-2-pyridinyl)[1,2,4]triazolo[4,3-b]pyridazin-3-amine] | –
2 | < 0.0001 | 0.0001 | – | – | – | – | C[C@@H]1C[C@H](N)CN(c2ccncc2Nc2ncc3ccc(-c4ccccc4F)nn23)C1 (single isomer, unassigned) [Example 46, N-(4-((cis)-3-amino-5-methylpiperidin-1-yl)pyridin-3-yl)-2-(2-fluorophenyl)imidazo[1,5-b]pyridazin-7-amine tris(2,2,2-trifluoroacetate)] | IC50 ([1]; tris(2,2,2-trifluoroacetate), read-out: KMS-12-BM IC50 IP): 0.0521 µM
3 | 0.0001 | 0.0005 | 0.148 | – | – | – | C[C@@H]1CN(c2ccncc2Nc2ncc3ccc(-c4c(F)cccc4F)nn23)C[C@@H](N)[C@H]1O [Example 41, (3R,4S,5R)-3-amino-1-(3-((2-(2,6-difluorophenyl)imidazo[1,5-b]pyridazin-7-yl)amino)-4-pyridinyl)-5-methyl-4-piperidinol] | –
4 | 0.0002 | 0.0005 | 0.132 | – | – | – | C[C@@H]1C[C@H](N)CN(c2ccncc2Nc2ncc3ccc(-c4ncccc4Cl)nn23)C1 [Example 79] | –

Further lines, the compound ahead of its results:

Row | SMILES | IC50 (Pim-1; [2]) [µM] | IC50 (Pim-2; [3]) [µM] | IC50 [1, 4] [µM] | IC50 (Pim-1; [5]) [µM] | IC50 (Pim-2; [6]) [µM] | IC50 [1, 7] [µM] | also measured
5 | C[C@H]1CN(c2ccncc2Nc2ncc3ccc(-c4ccc(S(C)(=O)=O)cc4F)nn23)C[C@@H](N)[C@@H]1O [Example 23, (3R,4R,5S)-3-amino-1-(3-((2-(2-fluoro-4-(methylsulfonyl)phenyl)imidazo[1,5-b]pyridazin-7-yl)amino)-4-pyridinyl)-5-methyl-4-piperidinol] | – | – | – | 0.0001 | 0.0005 | 1.4 | –
6 | Clc1ccccc1-c1ccc2cnc(Nc3cnccc3O[C@H]3CCCNC3)n2n1 [Example 16, 2-(2-chlorophenyl)-N-(4-((3S)-3-piperidinyloxy)-3-pyridinyl)imidazo[1,5-b]pyridazin-7-amine bis(2,2,2-trifluoroacetate)] | – | – | – | 0.044 | 0.298 | > 1 | –
7 | N[C@H]1CCCN(c2ncncc2Nc2ncc3ccc(-c4c(F)cccc4F)nn23)C1 [Example 36, (S)-N-(4-((3S)-3-amino-1-piperidinyl)-5-pyrimidinyl)-2-(2,6-difluorophenyl)imidazo[1,5-b]pyridazin-7-amine] | 0.0192 | 0.11 | > 31.6 | – | – | – | –
8 | C[C@H]1CN(c2ccncc2Nc2ncc3ccc(-c4nccs4)nn23)C[C@@H](N)[C@@H]1O [Example 21, (3R,4R,5S)-3-amino-5-methyl-1-(3-((2-(1,3-thiazol-2-yl)imidazo[1,5-b]pyridazin-7-yl)amino)-4-pyridinyl)-4-piperidinol] | – | – | – | 0.0003 | 0.0006 | 0.209 | –
9 | C[C@H]1CCN(c2ccncc2Nc2ncc3ccc(-c4c(F)cccc4F)nn23)C[C@H]1N (single isomer, unassigned) [Example 98, N-(4-((cis)-3-amino-4-methylpiperidin-1-yl)pyridin-3-yl)-2-(2,6-difluorophenyl)imidazo[1,5-b]pyridazin-7-amine bis(2,2,2-trifluoroacetate)] | – | – | – | – | – | – | IC50 (Pim-1; read-out: Pim-1 IC50 IP): 0.0028 µM; IC50 (Pim-2; read-out: Pim-2 IC50 IP): 0.0157 µM; IC50 ([1]; bis(2,2,2-trifluoroacetate), read-out: KMS-12-BM IC50 IP): 12.1 µM
10 | N[C@H]1CCCN(c2ccncc2Nc2ncc3ccc(-c4ccccc4F)nn23)C1 [Example 15, N-(4-((3S)-3-amino-1-piperidinyl)-3-pyridinyl)-2-(2-fluorophenyl)imidazo[1,5-b]pyridazin-7-amine bis(2,2,2-trifluoroacetate)] | – | – | – | – | 0.002 | 1.54 | IC50 (Pim-1; read-out: Pim_1_IC50): 0.0002 µM
11 | CS(=O)(=O)c1ccc(-c2ccc3cnc(Nc4cnccc4N4CCC[C@H](N)C4)n3n2)c(F)c1 [Example 22, N-(4-((3S)-3-amino-1-piperidinyl)-3-pyridinyl)-2-(2-fluoro-4-(methylsulfonyl)phenyl)imidazo[1,5-b]pyridazin-7-amine] | – | – | – | 0.0012 | 0.0091 | 2.39 | –
